Our source for the IC50 values is patent US12133901B2, “PSMA ligand targeted compounds and uses thereof” (CASE WESTERN RESERVE UNIVERSITY, priority 2019, dated 2024).

Numbered stars: 1 amine (or outer) side, 2 acyl side, 3 side chain; on linkers, the order of the positions; unused ones are H or OH. Square brackets hold non-standard residues; d marks the D form. Peptide text beside a SMILES is read from it. γGlu = O=C(O)[C@H](CCC(=O)[*:2])N[*:1]; X1 = O=C(C1CCC(CN[*:1])CC1)[*:2]; CO = O=C([*:1])[*:2]; Ahx = NCCCCCC(=O)O

The assay deals with T1, PSMA (Homo sapiens, UniProt Q04609).
T1 construct: LNcap cells were trypsinized and washed with cold Tris buffer; endogenous in cells; host or cells: LNCaP cells (printed 'LNcap'), whole-cell suspension
Kind of assay: Competition binding assay against 3H-ZJ24. The following applies: PSMA-expressing LNcap cells, 12 nM 3H-labelled ZJ24, 1 h at 37° C.; read-out: IC50 (concentration of ligand required to inhibit 50% of binding). The protocol: LNcap cells were trypsinized and washed with cold Tris buffer (0.5 mM). […] Each group was done in triplicate. The mixture was then centrifuged and washed three times with cold PBS. Finally, 4 m L of EcoLume cocktail (MP biomedicals) was added to each sample, and radioactivity was counted by a scintillation counter. The concentration of ligands required to inhibit 50% of binding (IC50) was determined by GraphPad Prism 3.0.

T1 sequence (Q04609 whole entry): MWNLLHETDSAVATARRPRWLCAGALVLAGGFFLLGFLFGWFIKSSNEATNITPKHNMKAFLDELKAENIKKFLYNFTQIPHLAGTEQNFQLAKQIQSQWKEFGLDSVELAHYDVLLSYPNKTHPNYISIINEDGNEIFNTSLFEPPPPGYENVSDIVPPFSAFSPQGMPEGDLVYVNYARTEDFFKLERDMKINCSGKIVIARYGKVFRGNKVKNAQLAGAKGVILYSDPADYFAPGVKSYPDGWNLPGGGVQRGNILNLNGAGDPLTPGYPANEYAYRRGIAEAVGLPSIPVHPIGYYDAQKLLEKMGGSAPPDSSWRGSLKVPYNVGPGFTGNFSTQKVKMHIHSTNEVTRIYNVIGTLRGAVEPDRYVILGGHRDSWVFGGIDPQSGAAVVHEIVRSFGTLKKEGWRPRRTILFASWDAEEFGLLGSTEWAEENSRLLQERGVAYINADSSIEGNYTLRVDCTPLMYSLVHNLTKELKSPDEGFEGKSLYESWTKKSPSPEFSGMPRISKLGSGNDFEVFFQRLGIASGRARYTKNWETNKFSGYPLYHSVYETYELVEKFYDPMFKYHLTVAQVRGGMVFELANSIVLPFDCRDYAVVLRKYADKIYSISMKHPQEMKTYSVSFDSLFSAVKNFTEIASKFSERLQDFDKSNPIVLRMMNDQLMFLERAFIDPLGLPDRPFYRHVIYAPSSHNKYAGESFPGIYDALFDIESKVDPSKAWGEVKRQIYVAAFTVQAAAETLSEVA

With `NCCCC[C@H](NC(=O)[C@H](CCC(=O)O)NC(=O)[C@H](CCC(=O)O)NC(=O)[C@H](CCC(=O)O)NC(=O)CCCCCNC(=O)C1CCC(CNC(=O)CC[C@H](NC(=O)N[C@@H](CCC(=O)O)C(=O)O)C(=O)O)CC1)C(=O)N[C@@H](Cc1ccc(O)cc1)C(=O)N[C@@H](CS)C(N)=O` (stereo partly drawn) [CY-PSMA-1, Glu-CO-Glu′-Amc-Ahx-Glu-Glu-Glu-Lys-Tyr-Cys-NH2] ({Glu-CO-γGlu}-[X1][Ahx]EEEKYC-NH2), the IC50 was 1.69 nM.
As for `CSC[C@H](NC(=O)N[C@@H](CCC(=O)O)C(=O)O)C(=O)O` [ZJ24], the figure is 8.31 nM.
